Source: publication PMC12779811, “Diverse phloroglucinols with hAChE inhibitory and anti-VRE effects from Rhodomyrtus tomentosa fruits” (Natural Products and Bioprospecting, 2026)
≈ marks a conversion by molar mass, not a printed value.

Legend:
[1] = system: vancomycin-resistant Enterococci (VRE); assay: Anti-VRE assay, standard broth microdilution method in 96-well plates; format: cell-based; details: Enterococcus, ampicillin positive control, tests performed three times, read-out: MIC against vancomycin-resistant Enterococci (VRE)
Experimental: As described in earlier studies, the antibacterial activities against vancomycin-resistant Enterococci (VRE) were achieved by a standard broth microdilution method in 96-well plates. Ampicillin (AMP) was a positive control, and all tests were performed three times.

[2] = target: T1, human acetylcholinesterase (hAChE) (Homo sapiens, UniProt P22303); assay: biochemical; details: triplicate; galantamine positive control; IC50 exceeding 40 μM considered inactive; read-out: hAChE inhibitory activity IC50 ± SD
Experimental: hAChE inhibition assays were performed according to a reported protocol, with galantamine as the positive control. All assays were performed in triplicate.

[3] = target: T1, human acetylcholinesterase (hAChE); design: method as in PMID 36007662; details: earlier report; cited from earlier work

T1 sequence (P22303 32-614): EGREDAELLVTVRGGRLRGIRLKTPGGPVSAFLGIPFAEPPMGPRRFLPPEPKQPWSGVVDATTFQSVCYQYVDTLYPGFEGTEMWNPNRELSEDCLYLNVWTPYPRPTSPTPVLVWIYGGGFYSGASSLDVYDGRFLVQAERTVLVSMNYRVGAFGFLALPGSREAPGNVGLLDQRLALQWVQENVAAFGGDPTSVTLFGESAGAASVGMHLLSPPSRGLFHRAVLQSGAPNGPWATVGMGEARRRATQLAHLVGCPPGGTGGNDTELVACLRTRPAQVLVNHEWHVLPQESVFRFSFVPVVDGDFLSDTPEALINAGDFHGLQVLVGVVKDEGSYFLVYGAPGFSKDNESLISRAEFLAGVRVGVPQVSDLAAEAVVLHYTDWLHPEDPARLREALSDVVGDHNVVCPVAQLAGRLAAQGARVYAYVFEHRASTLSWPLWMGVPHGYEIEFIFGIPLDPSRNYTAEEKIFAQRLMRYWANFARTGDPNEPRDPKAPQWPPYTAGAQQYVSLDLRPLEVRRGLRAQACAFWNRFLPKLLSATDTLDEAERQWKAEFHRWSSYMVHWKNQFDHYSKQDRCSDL

| SMILES | MIC [1] [µg/mL] | IC50 [2] [nM] | inhibitory activity against human acetylcholinesterase (hAChE), in words [3] |
| --- | --- | --- | --- |
| CC1(C)S[C@@H]2[C@H](NC(=O)[C@H](N)c3ccccc3)C(=O)N2[C@H]1C(=O)O [ampicillin, reference compound] | 2 (≈ 5.72 µM) | – | – |
| CC(C)C[C@H]1C2=C(O[C@]3(C)[C@H]1C[C@]1(C(C)C)C[C@@H]13)C(C)(C)C(=O)C(C)(C)C2=O [phloroglucinol 1, rhodotomentodione F] | – | > 40000 | – |
| CC1(C)C(=O)C2=C(OC3(O)C(=C2)C(=O)C(C)(C)C(=O)C3(C)C)C(C)(C)C1=O (stereo not shown) [phloroglucinol 2, rhodotomentodimer H] | – | > 40000 | – |
| CCC(C)C1C2=C(Oc3c(C(=O)C(C)C)c(O)cc(O)c31)C(C)(C)C(=O)C(C)(C)C2=O (stereo not shown) [phloroglucinol 3, rhodotomentodimer I] | – | 2890 ± 300 | – |
| CCC(C)C(=O)c1c(O)cc(O)c2c1OC1=C(C(=O)C(C)(C)C(=O)C1(C)C)C2C(C)C (stereo not shown) [phloroglucinol 4, rhodotomentodimer J] | – | 2390 ± 250 | – |
| CCC(C)C(=O)c1c(O)cc(O)c2c1OC1=C(C(=O)C(C)(C)C(=O)C1(C)C)C2C(C)C (stereo not shown) [phloroglucinol 5, rhodotomentodimer K] | – | 2460 ± 330 | – |
| CCC(C)C(=O)c1c(O)cc(O)c2c1OC1=C(C(=O)C(C)(C)C(=O)C1(C)C)C2C(C)CC (stereo not shown) [phloroglucinol 6, rhodotomentodimer L] | – | 2620 ± 210 | – |
| CCC(C)C(=O)c1c(O)cc(O)c2c1OC1=C(C(=O)C(C)(C)C(=O)C1(C)C)C2C(C)CC (stereo not shown) [phloroglucinol 7, rhodotomentodimer M] | – | 2410 ± 220 | – |
| CCC(C)C(=O)c1c(O)cc2c(c1O)C(C(C)CC)C1=C(O2)C(C)(C)C(=O)C(C)(C)C1=O (stereo not shown) [phloroglucinol 8, rhodotomentodimer N] | – | 3350 ± 410 | – |
| CCC(C)C(=O)c1c(O)cc2c(c1O)C(C(C)C)C1=C(O2)C(C)(C)C(=O)C(C)(C)C1=O (stereo not shown) [phloroglucinol 9, myrciarone B] | – | 2860 ± 300 | – |
| CCC(C)C(=O)c1c(O)cc2c(c1O)C(CC(C)C)C1=C(O2)C(C)(C)C(=O)C(C)(C)C1=O (stereo not shown) [phloroglucinol 10, rhodotomentodimer D] | – | – | exhibited inhibitory activity |
| CC(C)C(=O)c1c(O)cc2c(c1O)C(C(C)C)C1=C(O2)C(C)(C)C(=O)C(C)(C)C1=O (stereo not shown) [phloroglucinol 11, isomyrtucommulone B] | 1 (≈ 2.41 µM) | 1360 ± 160 | – |
| CC(C)CC(=O)c1c(O)cc2c(c1O)C(CC(C)C)C1=C(O2)C(C)(C)C(=O)C(C)(C)C1=O (stereo not shown) [phloroglucinol 12, rhodomyrtone] | 1 (≈ 2.26 µM) | 1520 ± 140 | – |
| CC(C)C(=O)c1c(O)cc(O)c2c1OC1=C(C(=O)C(C)(C)C(=O)C1(C)C)C2C(C)C (stereo not shown) [phloroglucinol 13, myrtucommulone B] | > 32 | 1040 ± 30 | – |
| CC(C)CC(=O)c1c(O)cc(O)c2c1OC1=C(C(=O)C(C)(C)C(=O)C1(C)C)C2C(C)C (stereo not shown) [phloroglucinol 14, callistenone A] | > 32 | 1230 ± 110 | – |
